Assay [1] concerns the target Glutamate receptor ionotropic, NMDA 1 (Rattus norvegicus, UniProt P35439). Nature of the assay: Inhibition of [3H]L-689,560 binding to Glycine site of NMDA receptor of rat cortical membranes. In kind it is cell membranes, Membrane.
In assay [2] the test system is Mus musculus. Nature of the assay: In vivo activity in DBA/2 Mouse audiogenic seizure model was determined by testing number of animals protected after a dose of 100 mg/Kg i.p.; Number of animals tested 8 mice. In kind it is functional.
For assay [3], the system named is Mus musculus. Nature of the assay: In vivo activity in DBA/2 Mouse audiogenic seizure model was determined by testing number of animals protected after a dose of 50 mg/Kg i.p.; Number of animals tested 8 mice. In kind it is functional.

Structures are written as SMILES.

Take `O=C(O)CCc1c(C(=O)O)[nH]c2cc(Cl)cc(Cl)c12`: the IC50 (as a rule, the midpoint of a concentration-inhibition curve) in assay [1] was determined as 0.07 µM. Besides, the Animals protected stood at 6 in the assay with Mus musculus [2] and 0 in the assay on Mus musculus [3].

In turn, `COC(=O)[C@@H]1c2ccc(Cl)cc2N[C@H]1C(=O)O` returned an IC50 in assay [1] greater than 300 µM.

As to `Nc1ccc(CNC(=O)CCc2c(C(=O)O)[nH]c3cc(Cl)cc(Cl)c23)cc1`, in assay [1], the IC50 is 0.027 µM. The Animals protected with Mus musculus [2] worked out at 1.

`O=C(O)[C@@H]1Nc2cc(Cl)ccc2[C@H]1CO` gave a concentration for half-maximal inhibition (IC50) in assay [1] greater than 100 µM.

As for `NC(=O)c1c(C(=O)O)[nH]c2cc(Cl)ccc12`, in assay [1], the 50% inhibitory concentration (IC50) is 0.81 µM.

Compound `O=C(O)[C@@H]1c2ccc(Cl)cc2N[C@H]1C(=O)O` displayed an IC50 in assay [1] greater than 100 µM.

In assay [1], `COC(=O)C1(C(=O)OC)c2ccc(Cl)cc2N[C@H]1C(=O)O` displayed an IC50 greater than 100 µM.

`NC(=O)[C@@H]1c2ccc(Cl)cc2N[C@H]1C(=O)O`: in assay [1], the IC50 was greater than 100 µM.

Compound `O=C(O)C[C@@H]1c2ccc(Cl)cc2N[C@H]1C(=O)O` came in with a half-maximal inhibitory concentration (IC50) in assay [1] greater than 100 µM.

As for `O=C(O)c1[nH]c2cc(Cl)ccc2c1CO`, in assay [1], the IC50 was determined as 9 µM. This counts as single-digit micromolar.

`O=C(CCc1c(C(=O)O)[nH]c2cc(Cl)cc(Cl)c12)Nc1ccccc1` returned an IC50 in assay [1] of 0.036 µM. This IC50 is about 250-fold lower than that of the compound before.

As for `O=C(OC[C@@H]1c2ccc(Cl)cc2N[C@H]1C(=O)O)c1ccccc1`, the IC50 in assay [1] is greater than 100 µM.

Source of the values: ChEMBL document CHEMBL1126381, “2-carboxy indolines and indoles as potential glycine/NMDA antagonists: effect of five-membered ring conformation on affinity” (Bioorg Med Chem Lett, 1992).
